The record followed here is patent publication US10633383B2, “Compounds for the treatment, alleviation or prevention of disorders associated with Tau aggregates” (AC Immune SA, priority 2018, dated 2020).

For orientation: EC50 means the concentration that produces a half-maximal response.

T1 sequence (P10636 561-689): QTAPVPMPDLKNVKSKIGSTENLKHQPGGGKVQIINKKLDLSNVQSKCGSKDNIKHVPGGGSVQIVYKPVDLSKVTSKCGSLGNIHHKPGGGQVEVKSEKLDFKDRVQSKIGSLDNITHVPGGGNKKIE
T2 sequence (P10636 1-441 isoform P10636-8): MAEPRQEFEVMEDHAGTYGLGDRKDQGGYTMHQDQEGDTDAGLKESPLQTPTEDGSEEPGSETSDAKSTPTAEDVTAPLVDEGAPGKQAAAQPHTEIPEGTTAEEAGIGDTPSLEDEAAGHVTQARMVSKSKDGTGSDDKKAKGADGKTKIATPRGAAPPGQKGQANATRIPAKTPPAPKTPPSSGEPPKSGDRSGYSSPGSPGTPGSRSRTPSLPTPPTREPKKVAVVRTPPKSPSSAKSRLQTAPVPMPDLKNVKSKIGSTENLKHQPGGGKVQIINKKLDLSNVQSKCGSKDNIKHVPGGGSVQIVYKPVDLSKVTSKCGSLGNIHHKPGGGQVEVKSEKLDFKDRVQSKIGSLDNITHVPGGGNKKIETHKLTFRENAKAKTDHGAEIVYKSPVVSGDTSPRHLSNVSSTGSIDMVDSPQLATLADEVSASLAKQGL

The first assay has as its target T1, Tau K18 fragment (amino acids 244 to 372 of human Tau441) aggregates (Homo sapiens, UniProt P10636).
T1 construct: encompassing amino acids 244 to 372 of the longest isoform (2N4R) of human Tau441; host or cells: bacteria
Description: Tau K18 disaggregation assay by ThT. Format: biochemical. To be noted: 2 μM K18 aggregates, 30 minutes at RT, ThT fluorescence. The protocol: Tau K18 Disaggregation Assay by ThT
(§1) Compounds were dissolved in anhydrous dimethyl sulfoxide (DMSO, Sigma-Aldrich) to reach a concentration of 10 mM. K18 aggregates and serial dilutions of compounds were mixed together in PBS (volume 50 μL) to a final concentration of 2 μM of K18 aggregates and from 160 to 0.04 μM of compounds. The mixture was incubated for 30 minutes at room temperature (RT), then 40 μL of this mixture were transferred into a black 384-well plate assay (Perkin-Elmer) and mixed with 10 μL of 100 μM ThT in 250 mM glycine (both from Sigma-Aldrich) in PBS. Fluorescence (relative fluorescence units; RFU) was measured in monoplicate or duplicate on a Tecan reader (excitation: 440 nm; emission: 485 nm). Percentage of K18 disaggregation was then calculated and half maximal effective concentration (EC50) was determined using GraphPad Prism version 5 (GraphPad Software) assuming a one-binding site fitting model.
In turn, `CN(C)c1nc2ccc(N3CCc4c(c5cc(F)ccc5n4C)C3)cc2s1` [Example 3] gave an EC50 of under 10 µM. The same measure, in the same setting: then `Fc1ccc2[nH]c3c(c2c1)CN(c1ccc2sc(N4CCOCC4)nc2c1)CC3` [Example 9], with under 10 µM; and `CN(C)c1nc2ccc(N3CCc4[nH]c5ccc(F)cc5c4C3)cc2o1` [Example 13], with under 10 µM; and `COc1ccc2[nH]c3c(c2c1)CN(c1ccc2oc(N4CCOCC4)nc2c1)CC3` [Example 24], with under 10 µM.

`C[C@@H]1CN(c2nc3cc(N4CCc5[nH]c6cc(F)ccc6c5C4)ccc3o2)CCO1` [Example 130] came in with an EC50 of under 10 µM. As to `COc1cc(N2CCc3[nH]c4cc(F)ccc4c3C2)ccn1` [Example 132], the EC50 was under 10 µM. On the same count and under the same terms, the value for `COc1ccc2c3c([nH]c2c1)CCN(c1ccc2oc(N4CCOCC4)nc2c1)C3` [Example 133] was under 10 µM; that for `CCOc1ccc2[nH]c3c(c2c1)CN(c1ccc2oc(N4CCOCC4)nc2c1)CC3` [Example 136] was 10 to 25 µM; that for `Cc1cccc2c3c([nH]c12)CCN(c1ccc2oc(N4CCOCC4)nc2c1)C3` [Example 137] was under 10 µM. Still for that read-out and setting: the value for `COc1cccc(N2CCc3[nH]c4cc(F)ccc4c3C2)n1` [Example 138] was under 10 µM; that for `CC(C)Oc1cc(N2CCc3[nH]c4cc(F)ccc4c3C2)ccn1` [Example 139] was 10 to 25 µM; that for `COc1ccnc(N2CCc3[nH]c4cc(F)ccc4c3C2)c1` [Example 140] was under 10 µM. On to `COc1ccc(N2CCc3[nH]c4cc(F)ccc4c3C2)nc1` [Example 141], for which the concentration for a half-maximal effect (EC50) lay in the range of 10 to 25 µM. The same measure, in the same setting: then `C[C@@H]1CN(c2nc3cc(N4CCc5[nH]c6cc(F)ccc6c5C4)ccc3o2)C[C@H](C)O1` [Example 142], with under 10 µM; and `CC(C)(C)Nc1nc2cc(N3CCc4[nH]c5cc(F)ccc5c4C3)ccc2o1` [Example 143], with under 10 µM; and `Cn1c2c(c3ccccc31)CN(c1ccc3oc(N4CCOCC4)nc3c1)CC2` [Example 144], with under 10 µM. Still for that read-out and setting: then `CN1CCN(c2nc3cc(N4CCc5[nH]c6cc(F)ccc6c5C4)ccc3o2)CC1` [Example 145], with under 10 µM. On the same count and under the same terms, the value for `CCn1c2c(c3ccc(F)cc31)CN(c1ccc3oc(N4CCOCC4)nc3c1)CC2` [Example 146, 5-(5-ethyl-7-fluoro-3,4-dihydro-1H-pyrido[4,3-b]indol-2-yl)-2-morpholino-1,3-benzoxazole] was under 10 µM. Consider `Cc1ccc(N2CCc3c(c4cc(F)ccc4n3C)C2)cc1O` [Example 147], for which the EC50 was under 10 µM. Same read-out and setting: then `COc1ccc(N2CCc3c(c4cc(F)ccc4n3C)C2)cc1` [Example 148], with under 10 µM; and `Cn1c2c(c3cc(F)ccc31)CN(c1ccc(OCCO)cc1)CC2` [Example 149], with under 10 µM; and `Cn1c2c(c3cc(F)ccc31)CN(c1ccc3cc(O)ccc3n1)CC2` [Example 150], with under 10 µM. With `COc1cc(N2CCc3c(c4cc(F)ccc4n3C)C2)ccc1O` [Example 151], the EC50 was under 10 µM. The compound `COc1cc(N2CCc3[nH]c4cc(F)ccc4c3C2)ccc1F` [Example 152] registered an EC50 of under 10 µM.

The next assay concerns the target T2, recombinant full-length (fl)Tau (human Tau 2N4R) aggregates (Homo sapiens, UniProt P10636).
T2 construct: 35 μM of recombinant full-length (fl)Tau in PBS were aggregated; made in house; host or cells: bacteria
Description: Full-length Tau (flTau) disaggregation assay by Thioflavin T (ThT). In kind it is biochemical. To be noted: 2 μM flTau aggregates, 30 minutes at RT, ThT fluorescence. The procedure: Full-Length Tau (flTau) Disaggregation Assay by Thioflavin T (ThT)
as §1, with “The longest isoform of human Tau (2N4R; 441 amino acids) was expressed in bacteria and purified. For the Tau disaggregation assay by ThT, 35 μM of recombinant full-length (fl)Tau in PBS were aggregated for 24 hours at 37° C. in presence of 50 μM of heparin (Sigma-Aldrich) and 10 mM of DTT (Sigma-Aldrich) under shaking at 750 RPM. Compounds were” for “Compounds were”, “10 mM. flTau aggregates and” for “10 mM. K18 aggregates and”, “μM of flTau aggregates and” for “μM of K18 aggregates and”, “Percentage of flTau disaggregation was” for “Percentage of K18 disaggregation was”, “calculated and the half maximal” for “calculated and half maximal”
On to `CN(C)c1nc2ccc(N3CCc4c(c5cc(F)ccc5n4C)C3)cc2s1` [Example 3], for which the EC50 lay within 10 to 25 µM. Still for that read-out and setting: the value for `Fc1ccc2[nH]c3c(c2c1)CN(c1ccc2sc(N4CCOCC4)nc2c1)CC3` [Example 9] was under 10 µM; that for `CN(C)c1nc2ccc(N3CCc4[nH]c5ccc(F)cc5c4C3)cc2o1` [Example 13] was 10 to 25 µM. Same read-out and setting: the value for `COc1ccc2c(c1)c1c(n2C)CCN(c2ccc3nc(N4CCOCC4)sc3c2)C1` [Example 16] was under 10 µM; that for `Cn1c2c(c3cc(F)cnc31)CN(c1ccc3nc(N4CCOCC4)sc3c1)CC2` [Example 17] was under 10 µM.

With `COc1ccc2[nH]c3c(c2c1)CN(c1ccc2nc(N4CCOCC4)oc2c1)CC3` [Example 18], the EC50 fell in the range of 10 to 25 µM.

In the case of `COc1ccc2c(c1)c1c(n2C)CCN(c2ccc3oc(N4CCOCC4)nc3c2)C1` [Example 21], the EC50 was in the range of 10 to 25 µM.

Take `Cn1c2c(c3cc(F)ccc31)CN(c1ccc3sc(N4CCOCC4)nc3c1)CC2` [Example 22]: the EC50 fell in the range of 25 to 50 µM. On to `COc1ccc2[nH]c3c(c2c1)CN(c1ccc2sc(N4CCOCC4)nc2c1)CC3` [Example 23], for which the EC50 was in the range of 25 to 50 µM. Same read-out and setting: then `COc1ccc2[nH]c3c(c2c1)CN(c1ccc2oc(N4CCOCC4)nc2c1)CC3` [Example 24], with 25 to 50 µM; and `CC(C)Nc1nc2cc(N3CCc4c(c5cc(F)ccc5n4C)C3)ccc2s1` [Example 25], with under 10 µM; and `CN(C)c1nc2cc(N3CCc4c(c5cc(F)ccc5n4C)C3)ccc2s1` [Example 28], with under 10 µM. On to `CN(C)c1nc2cc(N3CCc4c(c5cc(F)ccc5n4C)C3)ccc2o1` [Example 29], for which the EC50 is under 10 µM. On the same count and under the same terms, the value for `COc1ccc2[nH]c3c(c2c1)CN(c1ccc2sc(N(C)C)nc2c1)CC3` [Example 30] was under 10 µM; that for `COc1ccc2c(c1)c1c(n2C)CCN(c2ccc3nc(N(C)C)sc3c2)C1` [Example 31] was under 10 µM.

In the case of `COc1ccc2c(c1)c1c(n2C)CCN(c2ccc3sc(N(C)C)nc3c2)C1` [Example 32], the EC50 is 25 to 50 µM.

For the compound `COc1ccc2c(c1)c1c(n2C)CCN(c2ccc3nc(N(C)C)oc3c2)C1` [Example 33], the EC50 was under 10 µM. Same read-out and setting: then `CN(C)c1nc2ccc(N3CCc4c(c5cc(F)cnc5n4C)C3)cc2s1` [Example 34], with under 10 µM. On the same count and under the same terms, then `Cn1c2c(c3cc(F)cnc31)CN(c1ccc3oc(N4CCOCC4)nc3c1)CC2` [Example 36], with under 10 µM; and `Cn1c2c(c3cc(F)cnc31)CN(c1ccc3nc(N4CCOCC4)oc3c1)CC2` [Example 39], with 25 to 50 µM.

For the compound `COc1ccc2[nH]c3c(c2c1)CN(c1ccc2nc(N(C)C)oc2c1)CC3` [Example 40], the EC50 is 10 to 25 µM. The same measure, in the same setting: the value for `CN(C)c1nc2cc(N3CCc4c(c5ccc(F)cc5n4C)C3)ccc2o1` [Example 42] was 10 to 25 µM.

Take `Fc1ccc2c3c([nH]c2c1)CCN(c1ccc2nc(N4CCOCC4)sc2c1)C3` [Example 43]: the EC50 is under 10 µM. On the same count and under the same terms, then `Fc1ccc2c3c([nH]c2c1)CCN(c1ccc2nc(N4CCOCC4)oc2c1)C3` [Example 44], with 10 to 25 µM; and `Fc1ccc2oc3c(c2c1)CN(c1ccc2oc(N4CCOCC4)nc2c1)CC3` [Example 49], with under 10 µM; and `CN(C)c1nc2ccc(N3CCc4[nH]c5cc(F)ccc5c4C3)cc2s1` [Example 54], with under 10 µM. On the same count and under the same terms, then `CN(C)c1nc2cc(N3CCc4[nH]c5cc(F)ccc5c4C3)ccc2o1` [Example 56], with under 10 µM.

As to `Cn1c2c(c3ccc(F)cc31)CN(c1ccc3sc(N4CCOCC4)nc3c1)CC2` [Example 61], the EC50 was under 10 µM. As to `Cn1c2c(c3ccc(F)cc31)CN(c1ccc3nc(N4CCOCC4)oc3c1)CC2` [Example 62], the EC50 was under 10 µM. Regarding `Fc1ccc2c3c([nH]c2c1)CCN(c1ccc2sc(N4CCOCC4)nc2c1)C3` [Example 63], the EC50 is under 10 µM. The same measure, in the same setting: then `Cn1c2c(c3ccc(F)cc31)CN(c1ccc3oc(N4CCOCC4)nc3c1)CC2` [Example 65], with under 10 µM; and `CN(C)c1nc2ccc(N3CCc4c(c5ccc(F)cc5n4C)C3)cc2s1` [Example 67], with under 10 µM; and `Fc1ccc2[nH]c3c(c2c1)CN(c1ccc(N2CCOCC2)nc1)CC3` [Example 74], with 25 to 50 µM. Same read-out and setting: then `Cn1c2c(c3cc(F)ccc31)CN(c1ccc(N3CCOCC3)nc1)CC2` [Example 75], with 10 to 25 µM.
